Data taken from article PMC9782211 (Microorganisms, 2022).

What was measured:
Type in all cases: cell-based
[1] = tested on: human mononuclear cells (hMNCs); assay: MTT test, metabolic activity of human mononuclear cells
Experimental: Furthermore, the MTT assay was performed to determine the metabolic activity of the cells. In this test, the determination of cell viability is based on the reduction of the yellow water-soluble substance 3-(4,5-Dimethylthiazol-2-yl)-2,5-diphenyltetrazoliumbromid (MTT) into a blue-violet water-insoluble formacan.

[2] = tested on: LS-174T cells (human colon adenocarcinoma cell line); assay: Bionas chip-based system, respiration rate; settings: 24 h peptide exposure
Experimental: (§1) Cytotoxicity was assayed by using the chip-based Bionas system with four different cell types. These include human hepatoma cells (HepG2), human colon adenocarcinoma cells (LS-174T), human acute lymphocytic leukemic cells (Jurkat), and human peripheral blood mononuclear cells (hPBMC), provided by Cell Line Services (Piscataway, NJ, USA) and ProBioGen (Berlin, Germany). The cells were seeded on chips, with a density of 200,000 cells/chip for HepG2 and LS-174T, 300,000 cells/chip for Jurkat, and 2 million cells/chip for PBMC.
(§2) A metabolic investigation with four cells and cell lines on the effect of Pep19-2.5 on selected cell parameters was performed. In detail, see Table 1.
(§3) The analysis was performed in the Bionas® 2500 analyzing system by seeding the cells on the chips, with cell numbers of 200,000 for HepG2 cells and LS-174T cells, and 300,000 for Jurkat cells. The suspended cells were embedded on the day of the experiment in agarose and immediately put into the Bionas® 2500 analyzing system. The settling phase (‘RM’) was 5 h. The peptides were added after 5 h for 24 h, then a regeneration phase followed for 4 h (‘RM’), and in the last phase the cells were lysed with 0.2% triton in fresh medium (‘TX’). For the parameters acidification, respiration, and adhesion (impedance), the mean values from two experiments were calculated. […]

human PBMC cells = assay: Bionas chip-based system, respiration rate; settings: 24 h peptide exposure
Experimental: as §1, §2, §3

hERG ion channel = hERG ion channel (Homo sapiens, UniProt Q12809); assay: Manual patch clamp, hERG channel currents; settings: 1 µg/mL, fraction
Experimental: Manual patch clamp experiments were performed in the whole cell configuration [20] at room temperature. An EPC 10 patch clamp amplifier and the PatchMaster software (v2x90.5; both HEKA Elektronik, Germany) were used. […] The data were analyzed using R (version 3.6.3).
The manual patch clamp recordings on the hERG ion channel were performed with the same stimulation protocol as previously described, with an adjusted holding potential of −70 mV. After the establishment of the whole cell, the stimulation protocol was executed every 15 s for a period of 20 min. The application protocol had the following course: 5 min negative control period with an application of 0.1% DMSO, 10 min application of the test compound in one concentration, and 5 min positive control period with an application of E4031 (10 µM).
The extracellular solution for the recordings contained (in mM): 145 NaCl, 4 KCl, 10 glucose, 10 HEPES, 2 CaCl2, and 1 MgCl2; pH was adjusted to 7.4 by adding NaOH. The osmolarity of the solution was adjusted to 305 mOsmol/kg. The intracellular solution contained (in mM): 120 KCl, 1.7 MgCl2, 4 K2ATP, 5 CaCl2, 10 HEPES, and 10 EGTA; pH was adjusted to 7.2 by adding KOH. The osmolarity was adjusted to 292 mOsmol/kg.

hERG ion channel, sequence (Q12809 whole entry): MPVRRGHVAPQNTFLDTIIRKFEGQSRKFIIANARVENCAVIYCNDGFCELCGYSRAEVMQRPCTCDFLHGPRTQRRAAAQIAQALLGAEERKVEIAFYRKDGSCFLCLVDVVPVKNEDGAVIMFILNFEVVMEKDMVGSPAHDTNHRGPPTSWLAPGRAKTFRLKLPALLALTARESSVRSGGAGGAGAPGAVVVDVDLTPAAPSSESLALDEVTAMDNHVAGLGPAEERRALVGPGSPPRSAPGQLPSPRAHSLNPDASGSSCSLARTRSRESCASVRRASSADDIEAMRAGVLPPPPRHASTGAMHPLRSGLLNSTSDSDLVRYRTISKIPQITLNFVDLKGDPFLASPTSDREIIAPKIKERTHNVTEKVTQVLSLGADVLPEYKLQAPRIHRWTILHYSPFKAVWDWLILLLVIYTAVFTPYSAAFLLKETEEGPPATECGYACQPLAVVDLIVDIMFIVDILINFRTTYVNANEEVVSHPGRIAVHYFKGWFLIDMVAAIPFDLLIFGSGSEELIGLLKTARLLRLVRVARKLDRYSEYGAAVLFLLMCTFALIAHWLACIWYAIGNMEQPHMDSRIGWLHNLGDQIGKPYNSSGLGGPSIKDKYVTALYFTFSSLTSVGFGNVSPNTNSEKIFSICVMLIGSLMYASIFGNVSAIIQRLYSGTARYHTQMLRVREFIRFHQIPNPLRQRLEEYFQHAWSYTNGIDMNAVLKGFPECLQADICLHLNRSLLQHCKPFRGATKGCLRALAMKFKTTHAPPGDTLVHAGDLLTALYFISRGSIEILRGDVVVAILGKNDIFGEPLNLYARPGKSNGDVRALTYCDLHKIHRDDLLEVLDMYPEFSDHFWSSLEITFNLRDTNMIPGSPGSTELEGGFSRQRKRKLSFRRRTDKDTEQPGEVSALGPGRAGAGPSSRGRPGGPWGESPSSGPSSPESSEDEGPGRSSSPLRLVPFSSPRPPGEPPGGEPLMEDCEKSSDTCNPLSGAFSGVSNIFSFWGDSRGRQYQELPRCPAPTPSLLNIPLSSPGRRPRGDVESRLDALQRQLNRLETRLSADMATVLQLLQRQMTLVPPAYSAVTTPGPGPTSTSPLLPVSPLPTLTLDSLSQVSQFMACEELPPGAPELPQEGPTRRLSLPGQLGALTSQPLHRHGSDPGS

## N=C(N)NCCC[C@H](NC(=O)[C@H](Cc1ccc(O)cc1)NC(=O)[C@H](CCCCN)NC(=O)[C@H](CCCCN)NC(=O)[C@H](CS)NC(=O)CN)C(=O)N[C@@H](CCCNC(=N)N)C(=O)N[C@@H](Cc1ccccc1)C(=O)N[C@@H](CCCNC(=N)N)C(=O)N[C@@H](Cc1c[nH]c2ccccc12)C(=O)N[C@@H](CCCCN)C(=O)N[C@@H](Cc1ccccc1)C(=O)N[C@@H](CCCCN)C(=O)NCC(=O)N[C@@H](CCCCN)C(=O)N[C@@H](Cc1ccccc1)C(=O)N[C@@H](Cc1c[nH]c2ccccc12)C(=O)N[C@@H](Cc1ccccc1)C(=O)N[C@@H](Cc1c[nH]c2ccccc12)C(=O)NCC(N)=O [Pep19-2.5]
[1]; at 100 μg/mL
  metabolic state of the hMNC: decreases dramatically
[1]; hMNC, MTT test, Figure 1
  concentration above which cytotoxicity increases (MTT): above 20 μg/mL
[2]
  concentration above which toxic effects are observed (respiration rate): above 20 μg/mL
Human PBMC cells
  concentration above which respiration rate increased significantly: above 50 μg/mL
hERG ion channel
  Rel. Rem. Current ± SD (Manual Patch-Clamp): 1.00 ± 0.04
